Assay results reported in patent US10550102B2, “Indane and indoline derivatives and the use thereof as soluble guanylate cyclase activators” (NOVARTIS AG, priority 2014, dated 2020).
Where two headings read alike, the source gives them in different places.

Molecular target: soluble guanylate cyclase (human GUCYA3 and GUCYB3) overexpressed in CHO cells (Homo sapiens (Human), UniProt Q02108+Q02153)
Assay: CHO cellular assay (cGMP production, Cisbio cGMP HTRF kit)
Assay type: cell-based
Text: Chinese hamster ovary (CHO) cells overexpressing soluble guanylate cyclase were generated to test the effect of sGC activators in a cellular context. Human cDNAs for GUCYA3 (RefSeq: NM_000856.3) and GUCYB3 (RefSeq: NM_000857.1) were amplified by PCR from a HUVEC (Human Umbilical Vein Endothelial Cells) cDNA library and cloned into mammalian expression vectors. CHO K1 cells (ATCC CCL-61) were transfected using Lipofectamine 2000 following manufacturer's instructions and stably expressing clones were identified by antibiotic selection. CHO GUCY clone 8E10 was used for subsequent experiments. Cells were seeded at a density of 3000 cells/well in white 384-well proxyplates (Perkin Elmer) and incubated overnight, then the medium was removed and cells were washed with assay buffer (HBSS, 0.1% BSA. 1 mM IBMX, 20 uM ODQ). sGC activators were serially diluted in DMSO, then diluted in assay buffer prior to adding to cells (10 ul/well, final DMSO concentration 0.5%). Cells were incubated with compounds for 1 h room temperature, then assayed for cGMP production using Cisbio cGMP HTRF kit (62GM2PEC) according to manufacturer's instructions. The EC50s are calculated based on the amount of cGMP interpolated from the standard curve, using a 4-parameter sigmoidal dose-response.

[1] = CHO GUCY clone 8E10, cGMP production, assay buffer with 1 mM IBMX and 20 uM ODQ, 1 h room temperature, minimum quantification limit 0.5 nM (listed 0.5 nM means ≤0.5 nM), read-out: EC50

Sequence of soluble guanylate cyclase (human GUCYA3 and GUCYB3) overexpressed in CHO cells (Q02108 whole entry partner): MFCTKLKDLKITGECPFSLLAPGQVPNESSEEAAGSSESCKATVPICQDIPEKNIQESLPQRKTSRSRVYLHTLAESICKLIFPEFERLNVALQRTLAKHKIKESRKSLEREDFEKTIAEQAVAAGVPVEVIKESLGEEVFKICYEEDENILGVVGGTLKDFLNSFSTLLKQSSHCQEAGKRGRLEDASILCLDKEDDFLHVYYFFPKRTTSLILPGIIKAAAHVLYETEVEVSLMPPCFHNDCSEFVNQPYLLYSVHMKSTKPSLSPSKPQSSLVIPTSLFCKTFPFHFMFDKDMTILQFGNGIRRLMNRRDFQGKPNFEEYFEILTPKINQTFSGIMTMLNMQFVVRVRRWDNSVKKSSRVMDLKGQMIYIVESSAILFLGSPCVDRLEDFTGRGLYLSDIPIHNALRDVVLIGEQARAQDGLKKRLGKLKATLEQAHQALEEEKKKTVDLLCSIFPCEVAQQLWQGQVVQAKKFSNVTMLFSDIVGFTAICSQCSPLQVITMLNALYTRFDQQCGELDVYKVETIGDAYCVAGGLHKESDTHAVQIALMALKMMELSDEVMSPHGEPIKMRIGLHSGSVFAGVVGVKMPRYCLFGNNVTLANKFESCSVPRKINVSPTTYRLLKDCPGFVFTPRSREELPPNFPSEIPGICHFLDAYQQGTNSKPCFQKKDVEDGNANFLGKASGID
Sequence of soluble guanylate cyclase (human GUCYA3 and GUCYB3) overexpressed in CHO cells (Q02153 whole entry): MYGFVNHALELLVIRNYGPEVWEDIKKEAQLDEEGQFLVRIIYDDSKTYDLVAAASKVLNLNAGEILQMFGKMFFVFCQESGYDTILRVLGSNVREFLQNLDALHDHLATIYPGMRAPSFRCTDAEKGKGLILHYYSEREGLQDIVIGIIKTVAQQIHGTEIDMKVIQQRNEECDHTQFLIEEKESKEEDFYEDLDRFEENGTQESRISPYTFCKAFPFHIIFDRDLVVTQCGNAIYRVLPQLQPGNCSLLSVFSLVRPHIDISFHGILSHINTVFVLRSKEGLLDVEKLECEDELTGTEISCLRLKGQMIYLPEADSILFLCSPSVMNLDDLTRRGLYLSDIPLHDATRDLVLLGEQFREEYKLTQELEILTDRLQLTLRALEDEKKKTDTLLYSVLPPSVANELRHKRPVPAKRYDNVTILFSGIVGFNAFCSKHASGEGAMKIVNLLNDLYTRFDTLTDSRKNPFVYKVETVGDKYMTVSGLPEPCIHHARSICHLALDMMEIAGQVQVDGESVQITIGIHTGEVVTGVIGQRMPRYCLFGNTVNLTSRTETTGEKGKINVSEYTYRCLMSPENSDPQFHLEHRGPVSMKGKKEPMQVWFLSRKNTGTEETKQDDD

| Structure (SMILES) | EC50 [1] [nM] | EC50 (EC50 (nM)) [nM] |
| --- | --- | --- |
| CCc1c(C(=O)O)cnn1-c1cccc(-c2cccc3c2[C@@H](Oc2ccc(C4CCN(CC(F)(F)F)CC4)cc2C)CC3)n1 [Example 5-8] | 1 | – |
| CCC[C@H](O)C(=O)N1CCC(c2ccc(CC3CCc4cccc(-c5cccc(-n6ncc(C(=O)O)c6CC)n5)c43)cc2CC)CC1 (single isomer, unassigned; (-)) [40-1 (−)] | 15 | – |
| CCc1c(C(=O)O)cnn1-c1cccc(-c2cccc3c2N(Cc2ccc(C4CCN(C(=O)[C@H](C)O)CC4)cc2C)CC3)n1 [Example 18, (S)-5-Ethyl-1-(6-(1-(4-(1-(2-hydroxypropanoyl)piperidin-4-yl)-2-methylbenzyl)indolin-7-yl)pyridin-2-yl)-1H-pyrazole-4-carboxylic Acid] | 1.4 | – |
| CCc1cc(O[C@H]2CCc3cccc(-c4cccc(-n5ncc(C(=O)O)c5CC)n4)c32)ccc1C1CCN(C(=O)[C@H](C)O)CC1 [Example 30] | ≤ 0.5 | – |
| CCc1cc(CC2CCc3cccc(-c4cccc(-n5ncc(C(=O)O)c5CC)n4)c32)ccc1C1CCN(C(=O)OC)CC1 (single isomer, unassigned; (-)) [Example 41. b). (−), (−)-5-ethyl-1-(6-(3-(3-ethyl-4-(1-(methoxycarbonyl)piperidin-4-yl)benzyl)-2,3-dihydro-1H-inden-4-yl)pyridin-2-yl)-1H-pyrazole-4-carboxylic acid] | 18 | – |
| O=C(O)c1cnn(-c2cccc(-c3cccc4ccn(Cc5ccc(C6CCN(C(=O)C7CC7)CC6)cc5)c34)n2)c1C(F)(F)F [Example 26, 1-(6-(1-(4-(1-(Cyclopropanecarbonyl)piperidin-4-yl)benzyl)-1H-indol-7-yl)pyridin-2-yl)-5-(trifluoromethyl)-1H-pyrazole-4-carboxylic Acid] | 21 | – |
| CCc1cc(O[C@H]2CCc3cccc(-c4cccc(-n5ncc(C(=O)O)c5CC)n4)c32)ccc1C1CCN(C(=O)OC(C)C)CC1 [Example 64-3, (S)-5-Ethyl-1-(6-(3-(3-ethyl-4-(1-(isopropoxycarbonyl)piperidin-4-yl)phenoxy)-2,3-dihydro-1H-inden-4-yl)pyridin-2-yl)-1H-pyrazole-4-carboxylic acid] | – | 1 |
| CCc1cc(CN2CC(C)c3cccc(-c4cccc(-n5ncc(C(=O)O)c5CC)n4)c32)ccc1C1CCN(C(=O)C2CC2)CC1 (single isomer, unassigned; (+)) [(+)-20-1, (+)-1-(6-(1-(4-(1-(Cyclopropanecarbonyl)piperidin-4-yl)-3-ethylbenzyl)-3-methylindolin-7-yl)pyridin-2-yl)-5-ethyl-1H-pyrazole-4-carboxylic acid] | ≤ 0.5 | – |
| CCc1cc(CC2CCc3cccc(-c4cccc(-n5ncc(C(=O)O)c5CC)n4)c32)ccc1C1CCN(C(=O)OC)CC1 (single isomer, unassigned; (+)) [Example 41. b). (+), (+)-5-ethyl-1-(6-(3-(3-ethyl-4-(1-(methoxycarbonyl)piperidin-4-yl)benzyl)-2,3-dihydro-1H-inden-4-yl)pyridin-2-yl)-1H-pyrazole-4-carboxylic acid] | ≤ 0.5 | – |
| CCc1cc(CN2CCc3cccc(-c4cccc(-n5ncc(C(=O)O)c5C(F)(F)F)n4)c32)ccc1C1CCN(CC(F)(F)F)CC1 [Example 15] | 1.5 | – |
| CCc1cc(O[C@H]2CCc3cccc(-c4cccc(-n5ncc(C(=O)O)c5CC)n4)c32)ccc1C1CCN(C(=O)OCc2ccccc2)CC1 [Example 64-1, (S)-1-(6-(3-(4-(1-((Benzyloxy)carbonyl)pipendin-4-yl)-3-ethylphenoxy)-2,3-dihydro-1H-inden-4-yl)pyridin-2-yl)-5-ethyl-1H-pyrazole-4-carboxylic acid] | 2 | – |

The remaining lines, values ahead:

| EC50 [1] [nM] | EC50 (EC50 (nM)) [nM] | Structure (SMILES) |
| --- | --- | --- |
| 15 | – | CCc1cc(CC2CCc3cccc(-c4cccc(-n5ncc(C(=O)O)c5C)c4)c32)ccc1C1CCN(C(=O)C2CC2)CC1 (single isomer, unassigned; (-)) [55-1 (−), (−)-1-(3-(3-(4-(1-(cyclopropanecarbonyl)piperidin-4-yl)-3-ethylbenzyl)-2,3-dihydro-1H-inden-4-yl)phenyl)-5-methyl-1H-pyrazole-4-carboxylic acid] |
| ≤ 0.5 | – | CCc1cc(NC2CCc3cccc(-c4cccc(-n5ncc(C(=O)O)c5CC)n4)c32)ccc1C1CCN(C(=O)OC)CC1 (single isomer, unassigned; (+)) [(+)-52-2, (+)-5-Ethyl-1-(6-(3-((3-ethyl-4-(1-(methoxycarbonyl)piperidin-4-yl)phenyl)amino)-2,3-dihydro-1H-inden-4-yl)pyridin-2-yl)-1H-pyrazole-4-carboxylic acid] |
| ≤ 0.5 | – | C=CCOC(=O)N1CCC(c2ccc(NC3CCc4cccc(-c5cccc(-n6ncc(C(=O)O)c6CC)n5)c43)cc2CC)CC1 (single isomer, unassigned; (+)) [(+)-52-3] |
| 1 | – | O=C(O)c1cnn(-c2cccc(-c3cccc4c3N(Cc3ccc(C5CCN(C(=O)C6CC6)CC5)cc3)CC4)n2)c1C(F)(F)F [Example 12, 1-(6-(1-(4-(1-(Cyclopropanecarbonyl)piperidin-4-yl)benzyl)indolin-7-yl)pyridin-2-yl)-5-(trifluoromethyl)-1H-pyrazole-4-carboxylic Acid] |
| 21 | – | CCc1cc(NC2CCc3cccc(-c4cccc(-n5ncc(C(=O)O)c5CC)n4)c32)ccc1C1CCN(C(=O)C2CC2)CC1 (single isomer, unassigned; (-)) [(−)-53-1, (−)-1-(6-(3-((4-(1-(cyclopropanecarbonyl)piperidin-4-yl)-3-ethylphenyl)amino)-2,3-dihydro-1H-inden-4-yl)pyridin-2-yl)-5-ethyl-1H-pyrazole-4-carboxylic acid] |
| ≤ 0.5 | – | Cc1cc(C2CCN(C(=O)C3CC3)CC2)ccc1NC1CCc2cccc(-c3cccc(-n4ncc(C(=O)O)c4C(F)F)n3)c21 (single isomer, unassigned; (+)) [(+)-53-4, (+)-1-(6-(3-((4-(1-(cyclopropanecarbonyl)piperidin-4-yl)-2-methylphenyl)amino)-2,3-dihydro-1H-inden-4-yl)pyridin-2-yl)-5-(difluoromethyl)-1H-pyrazole-4-carboxylic acid] |
| ≤ 0.5 | – | Cc1nnc(N2CCC(c3ccc(NC4CCc5cccc(-c6cccc(-n7ncc(C(=O)O)c7C)n6)c54)c(C)c3)CC2)o1 (single isomer, unassigned; (+)) [58. b). (+), (+)-5-methyl-1-(6-(3-((2-methyl-4-(1-(5-methyl-1,3,4-oxadiazol-2-yl)piperidin-4-yl)phenyl)amino)-2,3-dihydro-1H-inden-4-yl)pyridin-2-yl)-1H-pyrazole-4-carboxylic acid] |
| 1 | – | Cc1cc(C2CCN(c3ccccn3)CC2)ccc1NC1CCc2cccc(-c3cccc(-n4ncc(C(=O)O)c4C)n3)c21 (racemic) [Example 59, (±)-Methyl-16-(3-((2-methyl-4-(1-(pyridin-2-yl)piperidin-4-yl)phenyl)amino)-2,3-dihydro-1H-inden-4-yl)pyridin-2-yl)-1H-pyrazole-4-carboxylic Acid] |
| 100 | – | Cc1cc(C2CCN(C(=O)C(C)C)CC2)ccc1NC1CCc2cccc(-c3cccc(-n4ncc(C(=O)O)c4C)n3)c21 (single isomer, unassigned; (-)) [(−)-46-1, (−)-1-(6-(3-((4-(1-isobutyrylpiperidin-4-yl)-2-methylphenyl)amino)-2,3-dihydro-1H-inden-4-yl)pyridin-2-yl)-5-methyl-1H-pyrazole-4-carboxylic acid] |
| 3.5 | – | Cc1cc(C2CCN(C(=O)CC3CC3)CC2)cc(F)c1NC1CCc2cccc(-c3cccc(-n4ncc(C(=O)O)c4C)n3)c21 (single isomer, unassigned; (+)) [(+)-53-3, (+)-1-(6-(3-((4-(1-(2-cyclopropyacetyl)piperidin-4-yl)-2-fluoro-6-methylphenyl)amino)-2,3-dihydro-1H-inden-4-yl)pyridin-2-yl)-5-methyl-1H-pyrazole-4-carboxylic acid] |
| 49 | – | CCc1c(C(=O)O)cnn1-c1cccc(-c2cccc3c2C(Nc2ccc(C4CCN(C(=O)C5CC5)CC4)cc2C)CC3)n1 (single isomer, unassigned; (-)) [Example 10b, (−)-1-(6-(3-((4-(1-(Cyclopropanecarbonyl)piperidin-4-yl)-2-methylphenyl)amino)-2,3-dihydro-1H-inden-4-yl)pyridin-2-yl)-5-ethyl-1H-pyrazole-4-carboxylic Acid] |
| 60 | – | CCc1nc(NC2CCc3cccc(-c4cccc(-n5ncc(C(=O)O)c5CC)n4)c32)ccc1C1CCN(C(=O)C2CC2)CC1 (single isomer, unassigned; (-)) [Example 63b, (−)-1-(6-(3-((5-(1-(Cyclopropanecarbonyl)piperidin-4-yl)-6-ethylpyridin-2-yl)amino)-2,3-dihydro-1H-inden-4-yl)pyridin-2-yl)-5-ethyl-1H-pyrazole-4-carboxylic Acid] |
| 160 | – | CCC(=O)N1CCC(c2ccc(NC3CCc4cccc(-c5cccc(-n6ncc(C(=O)O)c6C)n5)c43)c(C)c2)CC1 (single isomer, unassigned; (-)) [(−)-46-2] |
| 3.5 | – | Cc1cc(C2CCN(C(=O)C3CCC3)CC2)ccc1NC1CCc2cccc(-c3cccc(-n4ncc(C(=O)O)c4C)n3)c21 (single isomer, unassigned; (-)) [Example 45b] |
